Source: the NIST ThermoML archive (doi:10.1021/acs.jced.5b00021)
± gives the expanded uncertainty stated by the source.

Test: molar heat capacity at constant pressure
Conditions: 101.33 kPa, Crystal, Small sample (50 mg) DSC

Row | Compound | molar heat capacity at constant pressure (283 K) [J/K/mol] | molar heat capacity at constant pressure (293 K) [J/K/mol] | molar heat capacity at constant pressure (298 K) [J/K/mol] | molar heat capacity at constant pressure (303 K) [J/K/mol] | molar heat capacity at constant pressure (313 K) [J/K/mol] | molar heat capacity at constant pressure (323 K) [J/K/mol] | molar heat capacity at constant pressure (333 K) [J/K/mol] | molar heat capacity at constant pressure (343 K) [J/K/mol] | molar heat capacity at constant pressure (353 K) [J/K/mol]
1 | O=[N+]([O-])C(=C1NCCCN1)[N+](=O)[O-] [2-(dinitromethylene)-1,3-diazacyclohexane] | 200.18 ± 4 | 205.26 ± 4.1 | 207.71 ± 4.1 | 210.16 ± 4.1 | 215.05 ± 4.3 | 220.13 ± 4.3 | 225.02 ± 4.5 | 230.1 ± 4.5 | 234.99 ± 4.7
2 | O=[N+]([O-])C(=C1NCCN1)[N+](=O)[O-] [2-(dinitromethylene)-1,3-diazacyclopentane] | 197.45 ± 4 | 202.67 ± 4 | 205.28 ± 4.2 | 207.89 ± 4.2 | 213.29 ± 4.4 | 218.52 ± 4.4 | 223.74 ± 4.5 | 229.14 ± 4.5 | 234.36 ± 4.7
3 | NC(N)=C([N+](=O)[O-])[N+](=O)[O-] [1,1-diamino-2,2-dinitroethene] | 169.55 ± 3.4 | 174.14 ± 3.6 | 176.51 ± 3.6 | 178.73 ± 3.6 | 183.32 ± 3.7 | 187.91 ± 3.7 | 192.5 ± 3.9 | 197.09 ± 4 | 201.68 ± 4
4 | O=[N+]([O-])C(=C1NCCCCN1)[N+](=O)[O-] [2-(dinitromethylene)-1,3-diazacycloheptane] | 204.6 ± 4 | 211.67 ± 4.2 | 215.31 ± 4.2 | 218.75 ± 4.4 | 226.03 ± 4.4 | 233.1 ± 4.6 | 240.18 ± 4.9 | 247.25 ± 4.9 | 254.33 ± 5.1
5 | CC1CNC(=C([N+](=O)[O-])[N+](=O)[O-])N1 (stereo not given) [2-(dinitromethylene)-4-methylimidazolidine] | 209.78 ± 4.1 | 215.8 ± 4.3 | 218.81 ± 4.3 | 221.82 ± 4.5 | 227.84 ± 4.5 | 233.86 ± 4.7 | 239.88 ± 4.9 | 245.9 ± 4.9 | 251.92 ± 5.1
